The results in this text go back to ChEMBL document CHEMBL3132781, “Biologically active binaphthol-scaffolded imidazolium salts” (Medchemcomm, 2014).

Activity calls are given as the source filed them. The rule behind the calls is not given here.

Data set [1] in a line: Hemolysis in human erythrocytes upto 100 uM after 1 hr. Type of data set: ADME, cell-based, Erythrocyte. The settings on record: read-out: Activity.
Data set [2] can be described thus: Induction of chloride efflux in egg yolk phosphatidylcholine large unilamellar vesicles assessed as increase of lucigenin's fluorescence relative to EYPC. Type of data set: physicochemical.
A further data set concerns HEK-293T. Briefly: Cytotoxicity against human HEK293T cells after 24 hrs by MTT assay. Type of data set: cell-based.
Another data set concerns Listeria seeligeri. The data set is described as follows: Antibacterial activity against Listeria seeligeri ATCC 35967 assessed as complete inhibition of bacterial growth measured upto 24 hrs by broth dilution assay. Type of data set: functional. The settings on record: ATCC 35967, 24 h.
A further data set relates to Bacillus thuringiensis. Briefly: Antibacterial activity against Bacillus thuringiensis HD73 assessed as complete inhibition of bacterial growth measured upto 24 hrs by broth dilution assay. The data set is classed as functional. The settings on record: HD73, 24 h.
The next data set relates to Alcaligenes faecalis. The data set is described as follows: Antibacterial activity against Alcaligenes faecalis ATCC 8750 assessed as complete inhibition of bacterial growth measured upto 24 hrs by broth dilution assay. The data set is classed as functional. The settings on record: ATCC 8750, 24 h.
The subject of data set [3] is Escherichia coli. The data set is described as follows: Antibacterial activity against Escherichia coli DH5[alpha] assessed as complete inhibition of bacterial growth measured upto 24 hrs by broth dilution assay. Type of data set: functional.
For data set [4], the system named is Escherichia coli. Briefly: Antibacterial activity against Escherichia coli DH5[alpha] at 10 uM measured upto 24 hrs by broth dilution assay. The data set is classed as functional, organism-based.
Data set [5] concerns Escherichia coli. Briefly: Antibacterial activity against Escherichia coli DH5[alpha] at 50 uM measured upto 24 hrs by broth dilution assay. The data set is classed as functional, organism-based.
Data set [6] concerns Escherichia coli. Briefly: Antibacterial activity against Escherichia coli SK037 with Tn10 insertion inactivated TolC measured at 5 to 10 fold lower MIC within 2 hrs by broth dilution assay. The data set is classed as functional, organism-based.
Data set [7] can be described thus: Hemolysis in human erythrocytes at 3 to 4 uM after 24 hrs. The data set is classed as ADME, cell-based, Erythrocyte. The following applies: read-out: Activity.
Data set [8] can be described thus: Induction of chloride efflux in egg yolk phosphatidylcholine large unilamellar vesicles assessed as increase of lucigenin's fluorescence at 6.25 %mol relative to EYPC. Type of data set: physicochemical.
Data set [9] deals with Escherichia coli. The data set is described as follows: Antibacterial activity against Escherichia coli SK037 with Tn10 insertion inactivated TolC at 10 uM measured upto 24 hrs by broth dilution assay. Type of data set: functional, organism-based.
For data set [10], the system named is Escherichia coli. The data set is described as follows: Antibacterial activity against Escherichia coli SK037 with Tn10 insertion inactivated TolC at 50 uM measured upto 24 hrs by broth dilution assay. Type of data set: functional, organism-based.

As to `CCCCCCCCCCCC[n+]1ccn(Cc2cc3ccccc3c(-c3c(O)c(Cn4cc[n+](CCCCCCCCCCCC)c4)cc4ccccc34)c2O)c1.O=S(=O)([N-]S(=O)(=O)C(F)(F)F)C(F)(F)F.O=S(=O)([N-]S(=O)(=O)C(F)(F)F)C(F)(F)F`, the hemolysis at 1 h in data set [1] was less than 10%. The EC50 in [2] was 9.3 %molar. Moreover, inhibition in the data set on HEK-293T was half-maximal at 9.2 µM (IC50). Moreover, the MIC with Listeria seeligeri is 25 µM; with Bacillus thuringiensis, 100 µM; with Alcaligenes faecalis, greater than 100 µM; in the data set on Escherichia coli [3] it was greater than 100 µM.

With `C[n+]1ccn(Cc2cc3ccccc3c(-c3c(O)c(Cn4cc[n+](C)c4)cc4ccccc34)c2O)c1.O=S(=O)([N-]S(=O)(=O)C(F)(F)F)C(F)(F)F.O=S(=O)([N-]S(=O)(=O)C(F)(F)F)C(F)(F)F`, in data set [2], the EC50 result was “Not Active”. Moreover, the MIC in the data set with Listeria seeligeri, in the data set on Bacillus thuringiensis, in the data set with Alcaligenes faecalis and in the data set with Escherichia coli [3] was greater than 100 µM throughout.

In the case of `CCCC[n+]1ccn(Cc2cc3ccccc3c(-c3c(O)c(Cn4cc[n+](CCCC)c4)cc4ccccc34)c2O)c1.O=S(=O)([N-]S(=O)(=O)C(F)(F)F)C(F)(F)F.O=S(=O)([N-]S(=O)(=O)C(F)(F)F)C(F)(F)F`, the hemolysis at 1 h in data set [1] is less than 10%. The EC50 entry in [2] was “Not Active”. The result in the data set on Escherichia coli [4] and with Escherichia coli [5] was inactive. For the same compound, half-maximal inhibition in the data set on HEK-293T (IC50) was put at 23.8 µM. Further, the MIC in the data set on Listeria seeligeri is 30 µM; in the data set on Bacillus thuringiensis it was greater than 100 µM; with Alcaligenes faecalis it was greater than 100 µM; in the data set on Escherichia coli [3], greater than 100 µM.

As for `CCCCCCCC[n+]1ccn(Cc2cc3ccccc3c(-c3c(O)c(Cn4cc[n+](CCCCCCCC)c4)cc4ccccc34)c2O)c1.O=S(=O)([N-]S(=O)(=O)C(F)(F)F)C(F)(F)F.O=S(=O)([N-]S(=O)(=O)C(F)(F)F)C(F)(F)F`, the result with Escherichia coli [6], in the data set on Escherichia coli [9] and in the data set with Escherichia coli [10] was Active. Also, the hemolysis at 24 h, up to 4 µM in data set [7] is less than 15%. Besides, in data set [1], the hemolysis at 1 h was less than 10%. Further, the Activity in [8] stood at 68%. The EC50 in [2] was found to be 4.62 %molar. The outcome in the data set on Escherichia coli [4] and in the data set with Escherichia coli [5] was inactive. Moreover, the IC50 with HEK-293T was found to be 11.7 µM. Further, the MIC in the data set on Listeria seeligeri was 3 µM; in the data set on Bacillus thuringiensis it was 4 µM; with Alcaligenes faecalis, greater than 100 µM; with Escherichia coli [3] it was greater than 100 µM.

On to `CCCCCCCCCCCCCCCC[n+]1ccn(Cc2cc3ccccc3c(-c3c(O)c(Cn4cc[n+](CCCCCCCCCCCCCCCC)c4)cc4ccccc34)c2O)c1.O=S(=O)([N-]S(=O)(=O)C(F)(F)F)C(F)(F)F.O=S(=O)([N-]S(=O)(=O)C(F)(F)F)C(F)(F)F`, for which, in data set [2], the EC50 amounted to 18.1 %molar. In addition, the MIC in the data set with Listeria seeligeri, with Bacillus thuringiensis, in the data set with Alcaligenes faecalis and in the data set with Escherichia coli [3] was greater than 100 µM in each case.
